Entries after “also recorded” stand apart in the source; their conditions may differ. Where two headings read alike, the source gives them in different places. Marks after values point to notes of the source that are not given here. Positions of bridges follow the written chain, without caps; N, C: chain ends. Residues, ends and D or L forms follow the SMILES beside them. No end group written: not given here.
Columns and labels:
[1] = test system: normal human dermal fibroblasts (NHDF); assay: PI-uptake assay, NHDF; assay type: cell-based; conditions: 8 h
Description: (§1) Epidermis was separated. […] The pellet was resuspended in melanocyte growth media (Biomedica). […] All cell cultures were periodically checked for mycoplasma.

[2] = test system: melanoma cell line SBcl-2; assay: PI-uptake assay, SBcl-2; assay type: cell-based, human; conditions: 8 h; for IC50: PI-uptake
Protocol: as §1
Cells were incubated in media containing serum for 8 h in the presence of peptides. Peptide concentrations were varied from 10 to 80 μM.

[3] = test system: non-cancer cells (melanocytes, NHDF); assay: PI-uptake assay, non-cancer cells pooled; conditions: 20 μM peptide, up to 8 h
Protocol: The primary human melanoma cell line SBcl2 and the metastatic melanoma WM164 were maintained in RPMI (Sigma) supplemented with 2% FBS, 2% L-glutamine and 1% Pen/Strep. Glioblastoma (U87-mg) purchased from CLS (Cell Line Service Heidelberg, Germany) and Rhabdomyosarcoma cell lines (TE671) purchased from ECAAC (Health Protection Agency Culture Collections Salisbury, UK) are cultured in Dulbecco's Modified Eagle Medium (DMEM) with addition of 2 mM Glutamine, 10% FBS (fetal bovine serum). Melanoma cell line A375 CLS (Cell Line Service Heidelberg, Germany) was cultured in Dulbecco's Modified Eagle Medium (DMEM)(PAA) with addition of 2 mM Glutamine and 10% FBS (fetal bovine serum. Human melanocytes used as healthy control cells: were isolated from the foreskin). The foreskin was cut into small pieces and incubated with 0.3% trypsin (PAA) overnight at 4° C. and for one hour at 37° C. Epidermis was separated. Cells were mechanically removed from the cell layer and centrifuged at 300 g for 3 min. The pellet was resuspended in melanocyte growth media (Biomedica). Melanocytes were further cultured in human melanocytes growth medium (PromoCell GmbH). […]
For detection of PI-uptake by fluorescence spectroscopy experiments were performed according to the following protocol. […]
Cytotoxicity was calculated from the percentage of PI positive cells in media alone (P0) and in the presence of peptide (PX). […]

[4] = test system: human skin fibroblast cell line NHDF; assay: MTS cell proliferation assay, NHDF; conditions: read-out: IC50 Fibroblasts / NHDF (MTS); MTS cell viability assay, 24 h
Protocol: as §1
(§2) Cell proliferation was measured by using a CellTiter 96 AQ nonradioactive cell proliferation assay (Promega). Cells were plated in 96-well plates and grown until confluence. Peptides were added to a final concentration of 5-100 μM. After incubation for 24 h at 37° C. (5% CO2) MTS [3-(4,5-dimethylthiazol-2yl)-5-(3-carboxymethoxyphenyl)-2-(4-sulfophenyl)-2H-tetrazolium]-phenozine methosulfate solution (20 μl/well) was added and cells were again incubated for 2 h at 37° C. (5% CO2). The MIS compound is bioreduced by cells into a colored formazan product that is soluble in tissue culture medium. The quantity of the formazan product as measured by the amount of 490 nm absorbance is directly proportional to the number of living cells in culture. Data are calculated as a percentage of the control (untreated) samples and represent the average of three wells in one experiment which was repeated three times per cell line.
(§3) To determine long-time toxicity of peptides, a MTS cell proliferation assay was used to elucidate cell viability upon 24 h incubation with variant peptide concentration and human melanoma cell lines SBcl-2 and WM164 and non-differentiated human skin fibroblast cell line NHDF.

[5] = test system: human red blood cells; assay: Hemolysis; assay type: cell-based; conditions: for % lysis of 2.5% RBCs: one hour, 37° C.; for hemolysis IC50: human red blood cells
Protocol: The hemolytic activity towards human red blood cells (RBCs), which were obtained from heparinized human blood, was determined by the release of hemoglobin following one hour incubation at 37° C. in MHNA (Mueller Hinton cation Non Adjusted). Percentage of hemolysis of RBCs was calculated using 1% Triton as 100% lysis and PBS as 0% lysis, peptide concentration was 500 μg/ml.

[6] = test system: cancer cells (SBcl-2, WM164); conditions: read-out: IC50 against cancer cells (MTS), 24 h, FIG. 6C
Protocol: as §1, §2, §3

[7] = test system: cancer cells (SBcl-2, WM164, TE671); assay: PI-uptake assay, cancer cells pooled; assay type: cell-based; conditions: 20 μM peptide; for cytotoxic activity against cancer cells (killing): up to 8 h
Description: as §1

[8] = test system: tumor over non tumor cells; assay: Specificity for tumor over non tumor cells (PI uptake studies); assay type: cell-based, human; conditions: for Cancer Specificity, -fold specificity for melanoma over non tumor skin cells: melanoma (SBcl2 or A375) over melanocytes or NHDF-c, 8 hours, PI uptake
Description: as §1

[9] = test system: U87 mg glioblastoma cell line; conditions: 20 μM peptide, 8 h, PI-uptake
Description: as §1

[10] = test system: A375 melanoma cell line; conditions: 20 μM peptide, 8 h, PI-uptake
Description: as §1

[11] = MTS cell proliferation assay, NHDF; conditions: human, NHDF (normal human dermal fibroblasts)
Protocol: as §1, §2, §3

[12] = test system: melanoma metastasis WM164; conditions: for IC50: read-out: IC50 WM164 (MTS), 24 h
Protocol: as §1, §2, §3

[13] = test system: human red blood cells; conditions: 500 μg/ml peptide; from Zweytick et al., J. Biol. Chem. 286 (2011); cited from earlier work
[14] = test system: melanoma cell line SBcl-2; assay: MTS cell proliferation assay, SBcl-2; conditions: 24 h; for IC50: read-out: IC50 SBcl-2 (MTS), MTS cell viability assay
Protocol: as §1, §2, §3

[15] = Tryptophan fluorescence and quenching, healthy mimic; conditions: in presence of PC
Protocol: (§4) Tryptophan fluorescence spectra were obtained at room temperature using an excitation wavelength of 282 nm and a slit width of 5 nm for excitation and emission monochromators. Quenching of Tryptophan was carried out in the presence and absence of phospholipid liposomes (lipid to peptide ratio 25:1) using 0.1, 0.4 and 0.7 M acrylamide. The data were analyzed according to the Stern-Volmer equation: F0/F=1+KSV[Q] where F0 and F represent the fluorescence emission intensities in the absence and presence of the quencher molecule (Q) and KSV is the Stern-Volmer quenching constant, which is a quantitative measure for the accessibility of tryptophan to acrylamide (Tao, T. and Cho, J. Biochemistry 18(1979), 2759-2765).

[16] = Tryptophan fluorescence and quenching, cancer mimic; conditions: in presence of target lipid PS
Protocol: as §4

[17] = test system: caspase-3/7 activity of melanoma cell line SBcl-2; assay: Spectrofluorimetric analysis of caspase-3/7 activity; assay type: cell-based, human; conditions: SBcl-2, 10-20 μM peptide, 4 hours
Protocol: Spectrofluorimetric analysis of caspase-3/7 activity 5×10^5 cells/ml were seeded into 96-well plate and grown overnight at 37° C. and 5% CO2. Cells were incubated with different concentrations of peptide for 4 hours. Apo-ONE® caspase-3/7 reagent was added in a 1:1 volume ratio and cells were incubated for 4 hours. Cells were then analyzed by fluorescence spectroscopy (GloMax®-Multi+ Microplate Multimode Reader with Instinc™). Untreated cells were used as negative control. Analysis was performed with Apo-ONE® Homogeneous Caspase-3/7 Assay (see FIG. 7).

[18] = test system: differentiated non-tumorigenic melanocytes; assay: PI-uptake assay, melanocytes; assay type: cell-based, human; conditions: 20 μM peptide, 8 h
Protocol: as §1
(§5) Cells were incubated in media containing serum for 8 h in the presence of peptides. Peptide concentrations were varied from 10 to 80 μM. FIG. 3 illustrates that the peptide moiety PEP-322 is only minor active against the melanoma cell line SBcl-2 with less than 5% killing at a peptide concentration of 80 μM, as well as against melanocytes with a moderate two-fold selectivity for WM164 cells at 20 μM peptide concentration (FIG. 3C).

[19] = test system: melanoma metastasis WM164; assay: PI-uptake assay, WM164; assay type: cell-based, human; conditions: 20 μM peptide
Protocol: as §1, §5

FWQRRIRRWRRFWQRRIRRWRR-NH2 [DIM-PEP-318]
IC50 [1]: < 20 µM
IC50 [2]: < 20 µM
non-cancer toxicity (melanocytes, NHDF) [3]: highly active
IC50 [4]: 10 µM
hemolytic activity (in words) ([5]; 500 μg/ml peptide, 2.5% red blood cells): not hemolytic
% lysis of 2.5% RBCs ([5]; 500 μg/ml peptide): 2.87 ± 0.57%
hemolysis IC50 [5]: >500 µg/mL
IC50 [6]: < 10 µM
cytotoxic activity against cancer cells (killing) [7]: up to 90%

PFWRIRIRR PFWRIRIRR (PFWRIRIRRPFWRIRIRR) [DIM-PEP-322]
activity and selectivity for cancer cells (in words) [8]: selective for cancer cells
Cancer Specificity, -fold specificity for melanoma over non tumor skin cells ([8]; 20 μM peptide): yes (50fold)

RWKRINRQWFFWQRNIRKWR-NH2 [R-DIM-PEP-316]
activity and selectivity for cancer cells (in words) [8]: specific; also recorded: selective for cancer cells
Cancer Specificity, -fold specificity for melanoma over non tumor skin cells ([8]; 20 μM peptide): Yes (15fold) (R-DIM-)

CC[C@H](C)[C@H](NC(=O)[C@@H]1CSSC[C@H](NC(=O)[C@H](CCCCN)NC(=O)[C@@H](N)[C@@H](C)O)C(=O)N[C@@H](Cc2ccccc2)C(=O)N[C@@H](CCC(N)=O)C(=O)N[C@@H](Cc2c[nH]c3ccccc23)C(=O)N[C@@H](CCC(N)=O)C(=O)N[C@@H](CCCNC(=N)N)C(=O)N[C@@H](CC(N)=O)C(=O)N[C@@H](CCSC)C(=O)N[C@@H](CCCNC(=N)N)C(=O)N[C@@H](CCCCN)C(=O)N[C@@H](C(C)C)C(=O)N[C@@H](CCCNC(=N)N)C(=O)NCC(=O)N2CCC[C@H]2C(=O)N2CCC[C@H]2C(=O)N[C@@H](C(C)C)C(=O)N[C@@H](CO)C(=O)N1)C(=O)N[C@@H](CCCCN)C(=O)N[C@@H](CCCNC(=N)N)C(=O)N[C@@H](CC(=O)O)C(=O)N[C@@H](CO)C(=O)O [hLFcin (37-61)] (H-TKCFQWQRNMRKVRGPPVSCIKRDS-OH; disulfide 3-20)
toxicity against normal human dermal fibroblasts NHDF-c [1]: no toxicity
cytotoxicity against glioblastoma cell line U87 mg [9]: only weak activity
cytotoxicity against melanoma cell line A375 [10]: only weak activity

PFWRIRIRR-NH2 [PEP-322, PFWRIRIRR-NH2]
IC50 [1]: > 80 µM
IC50 [2]: > 80 µM
viability at 24 h, 100 μM [11]: > 70%
IC50 [4]: > 100 µM
cell viability WM164 ([12]; 100 μM peptide, 24 h, MTS): more than 70%
IC50 [12]: > 100 µM
% lysis of 2.5% RBCs [13]: 2^b %
cell viability SBcl-2 ([14]; 100 μM peptide, MTS): 40%
IC50 [14]: 90 µM

PFWRRRIRIRR RRIRIRRRWFP (PFWRRRIRIRRRRIRIRRRWFP) [R-DIM-PEP-337]
activity and selectivity for cancer cells (in words) [8]: less specific
Cancer Specificity, -fold specificity for melanoma over non tumor skin cells ([8]; 20 μM peptide): (2fold) (R-DIM-)

PFWRIRIRRD DRRIRIRWFP (PFWRIRIRRDDRRIRIRWFP) [R-DIM-PEP-323]
activity and selectivity for cancer cells (in words) [8]: selective for cancer cells

PFWRIRIRRPRRIRIRWFP-NH2 [R-DIM-P-PEP-322, PFWRIRIRRPRRIRIRWFP-NH2]
blue shift of Trp emission wavelength, PC [15]: no blue shift appears
IC50 [1]: > 80 µM
PI positive SBcl-2 cells ([2]; 20 μM peptide): more than 80%
IC50 [4]: 80 µM
blue shift of Trp emission wavelength, PS [16]: blue shift is only detected in presence of the target lipid PS
% lysis of 2.5% RBCs ([5]; 500 μg/ml peptide): 0.84 ± 0.63%
hemolysis IC50 [5]: >500 µg/mL
IC50 [12]: 15 µM
activity and selectivity for cancer cells (in words) [8]: cancer active and specific; also recorded: selective for cancer cells
specificity for cancer cells (PI-uptake ratio SBcl-2 vs. melanocytes) ([8]; 20 μM peptide, 8 h): more than 100 fold
Cancer Specificity, -fold specificity for melanoma over non tumor skin cells ([8]; 20 μM peptide): (R-DIM-), >100fold)
time to highest activity against cancer cells [7]: 4 to 8 h
cytotoxic activity against cancer cells (killing) [7]: up to 80%
increase of green fluorescence (caspase-3/7 activity) [17]: 200 fold
melanocytes killed [18]: less than 1%
IC50 [14]: 8 µM
sensitivity of WM164 for the peptide [19]: highly sensitive

PFWRIRIRR RRIRIRWFP (PFWRIRIRRRRIRIRWFP) [R-DIM-PEP-322]
activity and selectivity for cancer cells (in words) [8]: selective for cancer cells
Cancer Specificity, -fold specificity for melanoma over non tumor skin cells ([8]; 20 μM peptide): (DIM-), 20fold
time to highest activity against cancer cells [7]: ≥ 8 h

PFFWRIRIRRPFFWRIRIRR-NH2 [DIM-PEP-324]
activity and selectivity for cancer cells (in words) [8]: selective for cancer cells
Cancer Specificity, -fold specificity for melanoma over non tumor skin cells ([8]; 20 μM peptide): yes (7fold) (DIM-),
